Literature values, collected in PubChem BioAssay AID1259409 (Chemical Carcinogenesis Research Information System (CCRIS), 2018).

Test system: rodent chemically induced tumor inhibition, incidence and multiplicity
Experiment: CCRIS tumor inhibitor studies
Conditions: Species: RAT; for outcome: 0.005, 0.5, 500 PPM FOR 11 OR 43 WKS BEGINNING 1 WK AFTER CARCINOGEN (STUDY DURATION: 45 WKS), Dose [Carcinogen]: 100 MG/KG BW TWICE AT 1 WK INTERVALS (STUDY DURATION: 45 WKS)

Compound: CC(C)=CCC/C(C)=C/COc1ccc2ccc(=O)oc2c1
- tumour outcome (control, treated, inhibition, significance) (Carcinogen: AZOXYMETHANE, 25843-45-2, Dose [Inhibitor]: 0, 0.01% IN DIET FOR 4 WK BEGINNING 1 WK PRIOR TO CARCINOGEN TREATMENT (STUDY DURATION: 38 WK), Route [Inhibitor]: ORAL, Strain/Sex: F344/MALE, Target Tissue: Type of Lesion: COLON: ADENOCARCINOMA, Dose [Carcinogen]: 15 MG/KG BW 1/WK FOR 3 WK, Promoter: NONE): 60%, 34%, 43%, not significant
- tumour outcome (control, treated, inhibition, significance) (Carcinogen: AZOXYMETHANE, 25843-45-2, Dose [Inhibitor]: 0, 0.01% IN DIET FOR 34 WK BEGINNING 1 WK POST LAST CARCINOGEN DOSE (STUDY DURATION: 38 WK), Route [Inhibitor]: ORAL, Strain/Sex: F344/MALE, Target Tissue: Type of Lesion: COLON: ADENOCARCINOMA, Dose [Carcinogen]: 15 MG/KG BW 1/WK FOR 3 WK, Promoter: NONE): 60%, 24%, 60%, p<0.021
- tumour outcome (control, treated, inhibition, significance) (Carcinogen: AZOXYMETHANE, 25843-45-2, Dose [Inhibitor]: 0, 0.05% IN DIET FOR 4 WK BEGINNING 1 WK PRIOR TO CARCINOGEN TREATMENT (STUDY DURATION: 38 WK), Route [Inhibitor]: ORAL, Strain/Sex: F344/MALE, Target Tissue: Type of Lesion: COLON: ADENOCARCINOMA, Dose [Carcinogen]: 15 MG/KG BW 1/WK FOR 3 WK, Promoter: NONE): 60%, 20%, 67%, p<0.0075
- tumour outcome (control, treated, inhibition, significance) (Carcinogen: AZOXYMETHANE, 25843-45-2, Dose [Inhibitor]: 0, 0.05% IN DIET FOR 34 WK BEGINNING 1 WK POST LAST CARCINOGEN DOSE (STUDY DURATION: 38 WK), Route [Inhibitor]: ORAL, Strain/Sex: F344/MALE, Target Tissue: Type of Lesion: COLON: ADENOCARCINOMA, Dose [Carcinogen]: 15 MG/KG BW 1/WK FOR 3 WK, Promoter: NONE): 60%, 20%, 67%, p<0.0075
- tumour outcome (control, treated, inhibition, significance) (Carcinogen: DIETHYLNITROSAMINE [55-18-5], Dose [Inhibitor]: 500 PPM IN DIET FOR 7 WKS, STARTING 1 WK BEFORE CARCINOGEN (STUDY DURATION: 32 WKS), Route [Inhibitor]: DIET, Strain/Sex: F344/MALE, Target Tissue: Type of Lesion: LIVER: ADENOMA, Dose [Carcinogen]: 40 PPM FOR 5 WKS (STUDY DURATION: 32 WKS)): 46%, 46%, 0%
- tumour outcome (control, treated, inhibition, significance) (Carcinogen: DIETHYLNITROSAMINE [55-18-5], Dose [Inhibitor]: 500 PPM IN DIET FOR 7 WKS, STARTING 1 WK BEFORE CARCINOGEN (STUDY DURATION: 32 WKS), Route [Inhibitor]: DIET, Strain/Sex: F344/MALE, Target Tissue: Type of Lesion: LIVER: CARCINOMA, Dose [Carcinogen]: 40 PPM FOR 5 WKS (STUDY DURATION: 32 WKS)): 100%, 63%, 37%
- tumour outcome (control, treated, inhibition, significance) (Carcinogen: DIETHYLNITROSAMINE [55-18-5], Dose [Inhibitor]: 500 PPM IN DIET FOR 25 WKS BEGINNING 1 WK AFTER END OF CARCINOGEN TREATMENT, Route [Inhibitor]: DIET, Strain/Sex: F344/MALE, Target Tissue: Type of Lesion: LIVER: ADENOMA, Dose [Carcinogen]: 40 PPM FOR 5 WKS (STUDY DURATION: 32 WKS)): 46%, 42%, 8.7%
- tumour outcome (control, treated, inhibition, significance) (Carcinogen: DIETHYLNITROSAMINE [55-18-5], Dose [Inhibitor]: 500 PPM IN DIET FOR 25 WKS BEGINNING 1 WK AFTER END OF CARCINOGEN TREATMENT, Route [Inhibitor]: DIET, Strain/Sex: F344/MALE, Target Tissue: Type of Lesion: LIVER: CARCINOMA, Dose [Carcinogen]: 40 PPM FOR 5 WKS (STUDY DURATION: 32 WKS)): 100%, 33%, 67%

Compound: O=C(O)[C@@H]1CCCN1 (tested in a mixture with another compound)
- tumour outcome (control, treated, inhibition, significance) (Carcinogen: N-NITROSODIETHYLAMINE, 55-18-5, Dose [Inhibitor]: 0, 50 MG/KG 2/WK 1 HR PRIOR TO AND 24 HR POST CARCINOGEN TREATMENT FOR 10 WK (STUDY DURATION: 28 WK), Route [Inhibitor]: INTRAPERITONEAL, Strain/Sex: BD-6/MALE, Target Tissue: Type of Lesion: LIVER: TUMOR, Dose [Carcinogen]: 80 MG/KG 1/WK FOR 10 WK, Promoter: NONE USED): 22/23 (96%), 5/23 (22%), 77%, p<0.001
- tumour outcome (control, treated, inhibition, significance) (Carcinogen: N-NITROSODIETHYLAMINE, 55-18-5, Dose [Inhibitor]: 0, 100 MG/KG 2/WK 1 HR PRIOR TO AND 24 HR POST CARCINOGEN TREATMENT FOR 10 WK (STUDY DURATION: 28 WK), Route [Inhibitor]: INTRAPERITONEAL, Strain/Sex: BD-6/MALE, Target Tissue: Type of Lesion: LIVER: TUMOR, Dose [Carcinogen]: 80 MG/KG 1/WK FOR 10 WK, Promoter: NONE USED): 22/23 (96%), 9/21 (43%), 55%, p<0.001
- tumour outcome (control, treated, inhibition, significance) (Carcinogen: N-NITROSODIETHYLAMINE, 55-18-5, Dose [Inhibitor]: 0, 100 MG/KG 2/WK 1 HR PRIOR TO AND 24 HR POST CARCINOGEN TREATMENT FOR 10 WK (STUDY DURATION: 40 WK), Route [Inhibitor]: INTRAPERITONEAL, Strain/Sex: BD-6/MALE, Target Tissue: Type of Lesion: LIVER: TUMOR, Dose [Carcinogen]: 80 MG/KG 1/WK FOR 10 WK, Promoter: NONE USED): 22/23 (96%), 8/20 (40%), 58%, not calculated

Compound: Clc1ccc(C(c2ccc(Cl)cc2)C(Cl)(Cl)Cl)cc1
- outcome (Carcinogen: DIETHYLNITROSAMINE [55-18-5], Dose [Inhibitor]: 0, Dose [Inhibitor]: 0, Route [Inhibitor]: DIET, Strain/Sex: F344/MALE, Target Tissue: Type of Lesion: LIVER: HEPATOCELLULAR ADENOMA): 55%; 65%, -18%; 50%, 9%; 100%, -82%
- outcome (Carcinogen: DIETHYLNITROSAMINE [55-18-5], Dose [Inhibitor]: 0, Dose [Inhibitor]: 0, Route [Inhibitor]: DIET, Strain/Sex: F344/MALE, Target Tissue: Type of Lesion: LIVER: HEPATOCELLULAR CARCINOMA): 60%; 30%, 50%; 65%, -8%; 100%, -67%
- tumour outcome (control, treated, inhibition, significance) (Dose [Inhibitor]: 0, 7.5 MG 2/WK FOR 14 WK BEGINNING SIMULTANEOUSLY WITH CARCINOGEN TREATMENT (STUDY DURATION: 1 YR), Route [Inhibitor]: GAVAGE, Strain/Sex: WISTAR/MALE, Target Tissue: Type of Lesion: LIVER: BENIGN TUMORS, Dose [Carcinogen]: 50 UG 2/WK FOR WK 1-4 OF STUDY THEN 75 UG 2/WK FOR WK 5-8, Promoter: NONE USED): 22/25 (88%), 9/21 (43%), 51%, p<0.001
- tumour outcome (control, treated, inhibition, significance) (Dose [Inhibitor]: 0, 7.5 MG 2/WK FOR 14 WK BEGINNING SIMULTANEOUSLY WITH CARCINOGEN TREATMENT (STUDY DURATION: 1 YR), Route [Inhibitor]: GAVAGE, Strain/Sex: WISTAR/MALE, Target Tissue: Type of Lesion: LIVER: CARCINOMA, Dose [Carcinogen]: 50 UG 2/WK FOR WK 1-4 OF STUDY THEN 75 UG 2/WK FOR WK 5-8, Promoter: NONE USED): 14/25 (56%), 7/21 (33%), 41%, p<0.07
